# According to the supplement of paper PMC10307832:
# Key:
# Assay in all cases: relative viability (nuclei count vs DMSO), 5 days (fraction); higher = more cells survive
# [1] = tested on: NCI-H460
# Method in brief: (§1)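 Medians of duplicate plates are given as relative viability. That measure is the nuclei count in treated wells divided by the count in vehicle wells. Counts were taken on 4× images of lung cancer cell lines in 1536-well plates, 5 days after pin-tool dosing the day after seeding with one drug alone or a fixed anchor-drug dose plus five library-drug doses (not always all listed) in √10 steps.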
# [2] = tested on: NCI-H1944
# Method in brief: as §1
# [3] = tested on: HCC-78
# Method in brief: as §1
# [4] = tested on: UMC-11
# Method in brief: as §1
# [5] = tested on: NCI-H2405
# Method in brief: as §1
# [6] = tested on: ABC-1
# Method in brief: as §1
# [7] = tested on: NCI-H1755
# Method in brief: as §1
# [8] = tested on: LOU-NH91
# Method in brief: as §1
# [9] = tested on: PC-3 [JPC-3]
# Method in brief: as §1
# [10] = tested on: ChaGo-K-1
# Method in brief: as §1
# [11] = tested on: LU99A
# Method in brief: as §1
# [12] = tested on: NCI-H3122
# Method in brief: as §1
# [13] = tested on: CAL-12T
# Method in brief: as §1
# [14] = tested on: HCC-366
# Method in brief: as §1
# [15] = tested on: NCI-H2087
# Method in brief: as §1
# [16] = tested on: LC-2-ad
# Method in brief: as §1
# [17] = tested on: RERF-LC-KJ
# Method in brief: as §1
# [18] = tested on: NCI-H1793
# Method in brief: as §1
# [19] = tested on: NCI-H1651
# Method in brief: as §1
# [20] = tested on: NCI-H2228
# Method in brief: as §1
# [21] = tested on: NCI-H2170
# Method in brief: as §1
# [22] = tested on: NCI-H1395
# Method in brief: as §1
compound,measurement,setting,value
CC(=O)O[C@@]12CO[C@@H]1C[C@H](O)[C@@]1(C)C(=O)[C@H](O)C3=C(C)[C@@H](OC(=O)[C@H](O)[C@@H](NC(=O)OC(C)(C)C)c4ccccc4)C[C@@](O)([C@@H](OC(=O)c4ccccc4)[C@H]21)C3(C)C [Docetaxel] + O=C(CCCCCCC(=O)Nc1ccccc1)NO [Vorinostat] (partner 1 µM),relative viability,[1]; first compound 0.0002 µM,0.637
same,relative viability,[1]; first compound 0.000632 µM,0.349
same,relative viability,[1]; first compound 0.002 µM,0.0613
same,relative viability,[1]; first compound 0.006325 µM,0.0388
same,relative viability,[1]; first compound 0.02 µM,0.0166
same,relative viability,[2]; first compound 0.0002 µM,0.604
same,relative viability,[2]; first compound 0.000632 µM,0.538
same,relative viability,[2]; first compound 0.002 µM,0.423
same,relative viability,[2]; first compound 0.006325 µM,0.223
same,relative viability,[2]; first compound 0.02 µM,0.172
same,relative viability,[3]; first compound 0.0002 µM,0.473
same,relative viability,[3]; first compound 0.000632 µM,0.374
same,relative viability,[3]; first compound 0.002 µM,0.261
same,relative viability,[3]; first compound 0.006325 µM,0.31
same,relative viability,[3]; first compound 0.02 µM,0.313
same,relative viability,[4]; first compound 0.0002 µM,0.402
same,relative viability,[4]; first compound 0.000632 µM,0.287
same,relative viability,[4]; first compound 0.002 µM,0.155
same,relative viability,[4]; first compound 0.006325 µM,0.203
same,relative viability,[4]; first compound 0.02 µM,0.108
same,relative viability,[5]; first compound 0.0002 µM,0.839
same,relative viability,[5]; first compound 0.000632 µM,0.567
same,relative viability,[5]; first compound 0.002 µM,0.546
same,relative viability,[5]; first compound 0.006325 µM,0.394
same,relative viability,[5]; first compound 0.02 µM,0.335
same,relative viability,[6]; first compound 0.0002 µM,1.13
same,relative viability,[6]; first compound 0.000632 µM,0.884
same,relative viability,[6]; first compound 0.002 µM,0.44
same,relative viability,[6]; first compound 0.006325 µM,0.435
same,relative viability,[6]; first compound 0.02 µM,0.338
same,relative viability,[7]; first compound 0.0002 µM,0.791
same,relative viability,[7]; first compound 0.000632 µM,0.728
same,relative viability,[7]; first compound 0.002 µM,0.433
same,relative viability,[7]; first compound 0.006325 µM,0.479
same,relative viability,[7]; first compound 0.02 µM,0.373
same,relative viability,[8]; first compound 0.0002 µM,0.873
same,relative viability,[8]; first compound 0.000632 µM,0.628
same,relative viability,[8]; first compound 0.002 µM,0.436
same,relative viability,[8]; first compound 0.006325 µM,0.397
same,relative viability,[8]; first compound 0.02 µM,0.347
same,relative viability,[9]; first compound 0.0002 µM,0.673
same,relative viability,[9]; first compound 0.000632 µM,0.58
same,relative viability,[9]; first compound 0.002 µM,0.395
same,relative viability,[9]; first compound 0.006325 µM,0.343
same,relative viability,[9]; first compound 0.02 µM,0.21
same,relative viability,[10]; first compound 0.0002 µM,0.733
same,relative viability,[10]; first compound 0.000632 µM,0.591
same,relative viability,[10]; first compound 0.002 µM,0.335
same,relative viability,[10]; first compound 0.006325 µM,0.282
same,relative viability,[10]; first compound 0.02 µM,0.193
same,relative viability,[11]; first compound 0.0002 µM,0.529
same,relative viability,[11]; first compound 0.000632 µM,0.373
same,relative viability,[11]; first compound 0.002 µM,0.278
same,relative viability,[11]; first compound 0.006325 µM,0.269
same,relative viability,[11]; first compound 0.02 µM,0.173
same,relative viability,[12]; first compound 0.0002 µM,0.909
same,relative viability,[12]; first compound 0.000632 µM,0.95
same,relative viability,[12]; first compound 0.002 µM,0.487
same,relative viability,[12]; first compound 0.006325 µM,0.22
same,relative viability,[12]; first compound 0.02 µM,0.126
same,relative viability,[13]; first compound 0.0002 µM,0.411
same,relative viability,[13]; first compound 0.000632 µM,0.35
same,relative viability,[13]; first compound 0.002 µM,0.255
same,relative viability,[13]; first compound 0.006325 µM,0.142
same,relative viability,[13]; first compound 0.02 µM,0.12
same,relative viability,[14]; first compound 0.0002 µM,0.299
same,relative viability,[14]; first compound 0.000632 µM,0.0824
same,relative viability,[14]; first compound 0.002 µM,0.0503
same,relative viability,[14]; first compound 0.006325 µM,0.0366
same,relative viability,[14]; first compound 0.02 µM,0.0211
same,relative viability,[15]; first compound 0.0002 µM,0.663
same,relative viability,[15]; first compound 0.000632 µM,0.203
same,relative viability,[15]; first compound 0.002 µM,0.139
same,relative viability,[15]; first compound 0.006325 µM,0.115
same,relative viability,[15]; first compound 0.02 µM,0.103
same,relative viability,[16]; first compound 0.0002 µM,0.472
same,relative viability,[16]; first compound 0.000632 µM,0.275
same,relative viability,[16]; first compound 0.002 µM,0.209
same,relative viability,[16]; first compound 0.006325 µM,0.227
same,relative viability,[16]; first compound 0.02 µM,0.152
same,relative viability,[17]; first compound 0.0002 µM,0.591
same,relative viability,[17]; first compound 0.000632 µM,0.628
same,relative viability,[17]; first compound 0.002 µM,0.368
same,relative viability,[17]; first compound 0.006325 µM,0.189
same,relative viability,[17]; first compound 0.02 µM,0.151
same,relative viability,[18]; first compound 0.0002 µM,0.724
same,relative viability,[18]; first compound 0.000632 µM,0.479
same,relative viability,[18]; first compound 0.002 µM,0.199
same,relative viability,[18]; first compound 0.006325 µM,0.26
same,relative viability,[18]; first compound 0.02 µM,0.163
same,relative viability,[19]; first compound 0.0002 µM,0.41
same,relative viability,[19]; first compound 0.000632 µM,0.582
same,relative viability,[19]; first compound 0.002 µM,0.463
same,relative viability,[19]; first compound 0.006325 µM,0.159
same,relative viability,[20]; first compound 0.0002 µM,0.565
same,relative viability,[20]; first compound 0.000632 µM,0.145
same,relative viability,[20]; first compound 0.002 µM,0.168
same,relative viability,[20]; first compound 0.006325 µM,0.151
same,relative viability,[20]; first compound 0.02 µM,0.145
same,relative viability,[21]; first compound 0.0002 µM,0.787
same,relative viability,[21]; first compound 0.000632 µM,0.551
same,relative viability,[21]; first compound 0.002 µM,0.388
same,relative viability,[21]; first compound 0.006325 µM,0.162
same,relative viability,[21]; first compound 0.02 µM,0.136
same,relative viability,[22]; first compound 0.0002 µM,0.672
same,relative viability,[22]; first compound 0.000632 µM,0.601
same,relative viability,[22]; first compound 0.002 µM,0.462
same,relative viability,[22]; first compound 0.006325 µM,0.375
same,relative viability,[22]; first compound 0.02 µM,0.239
